Source: patent publication US8492106B2, “Identification methods for ergothioneine transporter modulators and therapeutic uses thereof” (Universitat Zu Koln, priority 2004, dated 2013)
Where two headings read alike, the source gives them in different places.

Experiments:
ETTh = molecular target: T1, ETTh (Homo sapiens, UniProt Q9H015); test: Substrate uptake into 293-FIT-ETTh cells expressing ETTh (LC-MS/MS and radiotracer assays); format: cell-based; conditions: for Km: read-out: Km (affinity of ETTh)
T1 construct: expressed in transfected cells
T1 sequence (Q9H015 1-551): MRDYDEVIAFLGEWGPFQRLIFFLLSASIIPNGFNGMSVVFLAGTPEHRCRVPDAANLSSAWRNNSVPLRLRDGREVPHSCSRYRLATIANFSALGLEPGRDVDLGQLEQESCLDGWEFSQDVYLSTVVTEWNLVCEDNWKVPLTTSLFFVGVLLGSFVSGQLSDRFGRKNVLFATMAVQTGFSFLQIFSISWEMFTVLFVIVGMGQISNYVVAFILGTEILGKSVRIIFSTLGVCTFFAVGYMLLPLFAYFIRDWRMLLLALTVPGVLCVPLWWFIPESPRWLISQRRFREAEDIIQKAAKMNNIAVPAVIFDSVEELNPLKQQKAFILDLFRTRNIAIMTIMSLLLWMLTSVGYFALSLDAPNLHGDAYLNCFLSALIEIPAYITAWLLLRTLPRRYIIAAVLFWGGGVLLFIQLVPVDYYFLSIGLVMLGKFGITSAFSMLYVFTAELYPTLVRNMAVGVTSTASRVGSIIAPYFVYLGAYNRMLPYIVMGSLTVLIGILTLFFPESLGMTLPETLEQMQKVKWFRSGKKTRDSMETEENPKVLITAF
Description: Substrate concentration was 10 μmol/l for all LC-MS/MS assays (gamma-butyryl betaine, N-methyl proline (alias hygric acid), hydroxyproline betaine (alias betonicine), proline betaine (alias stachydrine), and ergothioneine) and 0.1 μmol/l for all radiotracer assays.
(§1) FIG. 3: Determination of Km and Vmax of ergiothioneine transport via ETTh. 293-FIT-ETTh (filled circles) or 293-FIT-NT (open circles) cell monolayers were incubated for 1 min at 37° C. with various ET concentrations in KRH buffer. After thorough washing, cells were lysed with 4 mmol/l HClO4. Lysates were analysed for ET content by LC-MS/MS. Each circle represents a single dish. Uptake into control cells was modeled with a straight line through the origin.
The cDNA of ETTh (EMBL/GenBank accession number Y09881) was inserted into the eukaryotic expression vector pcDNA5/FRT/TO (Invitrogen) to yield pcDNA5/FRT/TO/ETTh. This plasmid was cotransfected together with plasmid pOG44 by lipofection with Tfx-50 (Promega) into Flp-In T-REx 293 cells (Invitrogen; referred to as 293-FIT-NT in the remainder). After antibiotic selection with hygromycin B and blasticidin S, the surviving cells, used as a pool and designated as 293-FIT-ETTh, were assayed for ETT transcripts by Northern analysis.
The cell lines 293-FIT-ETTh and 293-FIT-NT (original cell line, not transfected), grown as monolayers in 6 cm diameter polystyrol dishes and induced with 1 μg/ml doxycycline for 20 h, were incubated for 1 min at 37° C. with 2 ml of a mixture of human plasma (50%) and KRH buffer (50%). KRH buffer (Krebs-Ringer-Henseleit) contains 5.6 mM (+)-Glucose, 125 mM NaCl, 4.8 mM KCl, 1.2 mM KH2PO4, 1.2 mM CaCl2, 1.2 mM MgSO4, and 25 mM HEPES-NaOH pH 7.4. The dishes were rinsed 4 times with 3 ml ice-cold KRH and subsequently incubated with 1 ml of 4 mmol/l HClO4 to release the cell contents. 15 μl of lysate were analyzed by LC-MS (ESI, positive mode) using a Thermo Finnigan TSQ Quantum triple quad mass spectrometer equipped with a Waters Atlantis HILIC silica column (length 100 mm, diameter 3 mm, particle size 5 μm). The solvent for isocratic chromatography (flow rate 250 μl/min) was made of methanol (70%) and 0.1% formic acid (30%). Data sets were compared by LC-MS Difference Shading software (see separate patent application).
A series of compounds structurally related to either stachydrine or carnitine, the key substrate of the related OCTN2 transporter was tested, for transport by ETTh. […] LC-MS/MS determines total cellular content of a particular analyte.

[1] = Rabbit, blood; cited from earlier work
[2] = Accumulation of ergothioneine in the lens of the eye
[3] = Sheep, blood; cited from earlier work
[4] = Fowl, blood; cited from earlier work
[5] = molecular target: T2, carnitine transporter OCTN2 from rat (Rattus norvegicus, UniProt O70594); test: ET transport by carnitine transporter OCTN2; format: cell-based
T2 sequence (O70594 1-557): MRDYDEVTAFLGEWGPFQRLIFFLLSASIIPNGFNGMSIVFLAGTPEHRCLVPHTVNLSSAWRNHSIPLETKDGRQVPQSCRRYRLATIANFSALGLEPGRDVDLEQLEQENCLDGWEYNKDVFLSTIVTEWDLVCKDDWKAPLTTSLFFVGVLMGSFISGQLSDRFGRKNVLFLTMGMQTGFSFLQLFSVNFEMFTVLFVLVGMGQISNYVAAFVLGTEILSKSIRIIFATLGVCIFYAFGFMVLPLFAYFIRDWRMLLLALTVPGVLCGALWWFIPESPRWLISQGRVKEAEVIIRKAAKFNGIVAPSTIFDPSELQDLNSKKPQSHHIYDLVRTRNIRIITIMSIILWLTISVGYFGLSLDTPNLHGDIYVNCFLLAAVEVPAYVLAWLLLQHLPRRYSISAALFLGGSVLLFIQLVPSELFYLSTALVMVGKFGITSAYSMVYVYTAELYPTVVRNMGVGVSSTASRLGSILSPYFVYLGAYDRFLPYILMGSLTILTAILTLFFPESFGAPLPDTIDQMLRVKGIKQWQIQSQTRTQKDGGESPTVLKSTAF
Description: If the substrate concentration is much smaller than the affinity of the transporter (=Km), then the clearance is directly proportional to the transport efficiency, defined, by analogy to catalytic efficiency for enzymes, as kcat/Km, where kcat is the turnover number of an individual transporter molecule (note that Vmax=kcat*Etotal, where Etotal is the number of transporter molecules).

[6] = cited from earlier work
[7] = Ox, blood; cited from earlier work
[8] = Dog, blood; cited from earlier work
[9] = Man, blood; cited from earlier work
293-FIT-NT cells = test: ET uptake into control 293-FIT-NT cells (no ETT expression); format: cell-based, human
Description: as §1

[10] = Cat, blood; cited from earlier work
[11] = Rat, blood; cited from earlier work
[12] = Guinea Pig, blood; cited from earlier work
[13] = Pig, blood; cited from earlier work
[14] = in vivo
[15] = 293-FIT-ETTh cells, 1 min at 37° C., KRH buffer, LC-MS/MS
[16] = LC-MS/MS assay, substrate 10 μmol/l, 1 min at 37° C.

CC[N+](CC)(CC)CC [TEA, tetraethyl ammonium]
transport by ETTh (in words) (ETTh; radiotracer assay, substrate 0.1 μmol/l): negligible

C[N+](C)(C)[C@@H](Cc1c[nH]c(=S)[nH]1)C(=O)[O-] [ergothioneine, 2-mercaptohistidine trimethylbetaine]
Ergothioneine concentration [1]: 1-10 mg/100 ml blood | true clearance (Vmax divided by Km) (ETTh; 293-FIT-ETTh cells): 190 μl/min/mg protein | Vmax (ETTh; [15]): 4.2 nmol/min/mg protein | Km (ETTh; [15]): 22 µM | transport by ETTh (in words) (ETTh; [16]): extremely high transport activity | ETTh transports ET better than stachydrine (ETTh; transport efficiency, ET versus stachydrine): 10 fold | accumulation in the lens of the eye (in words) [2]: significant accumulation | Ergothioneine concentration [3]: 2-6 mg/100 ml blood | Ergothioneine concentration [4]: 2-10 mg/100 ml blood | acceptance as substrate by OCTN2 [5]: did not accept ET as a substrate at all | concentration in human and mammalian tissue (estimated) [6]: 1000 to 2000 µM | Ergothioneine concentration [7]: 0.5-2 mg/100 ml blood | Ergothioneine concentration [8]: 3-6 mg/100 ml blood | Ergothioneine concentration [9]: 1-4 mg/100 ml blood | slope d of uptake into control cells (293-FIT-NT cells; 293-FIT-NT control cells, 1 min at 37° C., KRH buffer): 0.32 μl/min/mg protein | uptake into cells without expression of ETT (in words) (293-FIT-NT cells; without expression of ETT): virtually no uptake | Ergothioneine concentration [10]: 0.5-2 mg/100 ml blood | Ergothioneine concentration [11]: 1-6 mg/100 ml blood | Ergothioneine concentration [12]: 1-4 mg/100 ml blood | Ergothioneine concentration [13]: 3-27 mg/100 ml blood

C[N+]1(C)C[C@@H](O)C[C@@H]1C(=O)[O-] [hydroxyproline betaine]
transport by ETTh (in words) (ETTh; [16]): good substrates

C[N+]1(C)CCC[C@H]1C(=O)[O-] [stachydrine]
Km (ETTh; [15]): 300 µM | transport by ETTh (in words) (ETTh; [16]): accumulated | transport by ETTh (in words) (ETTh; LC-MS/MS assay, substrate 10 μmol/l, 1 min at 37° C., listed as proline betaine): good substrates | plasma levels [14]: about 10 μmol/l
